Laboratory results as given in patent publication US20230321135A1, “TARGETING OF LACTATE DEHYDROGENASE C, METHODS OF PREPARING SAME, AND METHODS OF USING SAME IN COMBINATION WITH ANTI-CANCER TREATMENTS” (QATAR FOUNDATION FOR EDUCATION, SCIENCE AND COMMUNITY …, priority 2020, published 2023).

What was measured:
[1] = system: LDHC; details: cited from earlier work
[2] = system: shLDHC breast cancer cells (MDA-MB-468, BT-549, HCC-1500); test: Annexin V/PI apoptosis after 72 hrs of treatment with olaparib or cisplatin; assay type: cell-based
Description: (§1) FIG. 6A: Annexin V/PI flow cytometric quantification of apoptosis after 72 hrs of treatment with olaparib or cisplatin. FIG. 6B depicts a western blot of cleaved caspase 3 protein expression with β-actin as loading control. Numbers under each lane represent mean densitometry values (arbitrary units) for cleaved caspase 3 signal (high exposure blot) from three independent experiments normalized to β-actin. FIG. 6C: Representative immunofluorescence microscopy images of phospho-γ-H2AX (red) and DAPI-stained nuclei (100× magnification). Yellow arrows indicate early apoptotic cells and white arrows indicate late apoptotic cells. […] All statistical analysis comparing shCTRL vs shLDHC performed using Student's t-test.
Supplemental FIG. 5A depicts a representative Annexin V/PI flow cytometry plots of MDA-MB-468 cells after 72 hrs of treatment with olaparib or cisplatin. Supplemental FIG. 5B depicts Annexin V/PI flow cytometric quantification of BT-549 cells after 72 hrs of treatment with olaparib or cisplatin. Supplemental FIG. 5C: Annexin V/PI flow cytometric quantification of HCC-1500 cells after 72 hrs of treatment with olaparib or cisplatin. […] Statistical analysis comparing shCTRL vs shLDHC performed using Student's t-test. […]

[3] = system: shLDHC breast cancer cells (MDA-MB-468, BT-549, MDA-MB-231, HCC-1500); test: Clonogenic assay at 14 days of culture post-treatment (72 h) with olaparib or cisplatin; assay type: cell-based; details: cell-line dependent
[4] = system: MDA-MB-468 cells; test: Western blot of cleaved caspase 3 after olaparib or cisplatin treatment; assay type: cell-based; details: MDA-MB-468, after treatment
Description: as §1
(§2) DNA damage repair inhibitors and DNA damage inducing agents, including the Poly ADP-ribose polymerase (PARP)-inhibitor olaparib and cisplatin, are widely used anti-cancer drugs with particular benefit to patients with defects in DDR pathways such as BRCA1/2-positive or ‘BRCAness’ basal breast cancer patients.

[5] = system: MDA-MB-468 cells; test: Phospho-γ-H2AX immunofluorescence after olaparib or cisplatin treatment; assay type: cell-based; details: similar levels in shCTRL and shLDHC treated cells
Description: as §1, §2

[6] = system: HCC-1500 cells; test: Sensitivity to olaparib or cisplatin (72 h treatment; Annexin V/PI, clonogenic assay); assay type: cell-based; details: 14 days of culture post-treatment (72 h)

Row | Structure (SMILES) | affinity for LDHC [1] | apoptosis in giant shLDHC cells compared to shCTRL cells [2] | colony formation ability of shLDHC cells further compromised, compared to shCTRL treated cells [3] | expression of cleaved caspase 3 in shLDHC cells [4] | DNA damage after treatment [5] | clonogenic ability of shCTRL and shLDHC cells [6] | selectivity towards LDHC ([1]; vs other lactate dehydrogenase enzymes (LDHA, LDHB))
1 | CCNC(=O)C(=O)O [N-Ethyl oxamate] | high affinity |  |  |  |  |  | 
2 | N.N.[Cl][Pt][Cl] [cisplatin] |  | further induced | greater than 4 fold | augmented | significant increase | completely abolished | 
3 | CCCNC(=O)C(=O)O [N-propyl oxamate] |  |  |  |  |  |  | high degree of selectivity
4 | O=C(c1cc(Cc2n[nH]c(=O)c3ccccc23)ccc1F)N1CCN(C(=O)C2CC2)CC1 [olaparib] |  | further induced | about 2 fold | augmented | significant increase |  | 
